In patent US6706734B2, “Arylpiperidinol and arylpiperidine derivatives and pharmaceuticals containing the same” (Daiichi Suntory Pharma Co., Ltd., priority 1996, dated 2004):

Legend:
[1] = tested on: Sodium channel; test: Inhibitory effect of veratrizine-induced sodium channel activity (synaptosome membrane potential, Rhodamine 6G); type: biochemical, Wistar rats; conditions: compound 0.1 μM, rat brain synaptozomes, veratridine-induced depolarization
Description: Inhibitory Effect of Veratrizine-induced Sodium Channel Activity
The membrane potential of the synaptozomes prepared from the brain membrane of Wistar rats (male, 10 to 12 weeks old) was measured by the method of Aiuchi et al. (t. Aiuchi et al: Biochimi. Biophys. Acta. 771, 228 (1984)) using a membrane potential sensitive fluorescent dye Rhodamine 6G to evaluate the effects of suppression of the compound on the veratrizine-inducing depolarization response.

[2] = tested on: DBA/2N type mice; test: Audiogenic seizure suppressing effect; type: in vivo; conditions: compound 10 mg/kg, i.p., audio stimulus after 20 minutes, suppression of average seizure score; for inhibition in vivo at 10 mg/kg: Mus musculus, ip, 20 min, read-out: Antiseizure effect (suppression rate %)
Description: Audiogenic Seizure Suppressing Effect
The audiogenic seizure suppressing effect of the compounds was evaluated by the method of Sarro et al. [G. B. De Sarro et al., Br. J. Pharmacol., 93, 247 (1988)]. That is, the compound dissolved in 10% 2-hydroxypropyl-β-cyclodextrin was administered intraperitoneally to DBA/2N type mice (male, 3 weeks old). After 20 minutes, a supersonic washer was used to apply audio stimulus of at least 90 dB for one minute. The wild running (WR), clonic seizures (clonus), tonic seizures (tonus), and respiratory arrest (RA) were observed.

**Q.** What does the source list for `OC(COc1ccccc1)CN1CCC(O)(c2ccc(-c3ccccc3)c(F)c2)CC1` (centres unmarked) [Compound 24, 4-(3-fluoro-4-phenyl)phenyl-1-(2-hydroxy-3-phenoxy)propyl-4-piperidinol]?
**A.** Anti-veratridine effect (inhibiting rate %) [1]: 23.8%; inhibition in vivo at 10 mg/kg [2]: 74%

**Q.** How did the “Anti-veratridine effect (inhibiting rate %)” value [1] turn out when `Cc1cccc(C)c1NC(=O)CN1CCC(O)(c2ccc(Oc3ccccc3)cc2)CC1` [Compound 55, N-(2,6-dimethylphenyl)-4-hydroxy-4-(4-phenoxy)phenyl-1-piperidinacetamide] was run?
**A.** 28.3%

**Q.** And the inhibition in vivo at 10 mg/kg [2]?
**A.** 71.7%

**Q.** How did the “Anti-veratridine effect (inhibiting rate %)” value [1] turn out when `OC1(c2ccc(Oc3ccccc3)cc2)CCN(CC2CC2c2ccccc2)CC1` (stereo not drawn) [Compound 50, 4-(4-phenoxy)phenyl-1-(trans-2-phenyl-1-cyclopropylmethyl)-4-piperidinol] was run?
**A.** 33.4%

**Q.** And the inhibition in vivo at 10 mg/kg [2]?
**A.** 56%

**Q.** For `O[C@@H](COc1ccccc1)CN1CCC(O)(c2ccc(Oc3ccccc3)cc2)CC1` [Compound 46, (R)-4-(4-phenoxy)phenyl-1-(2-hydroxy-3-phenoxy)propyl-4-piperidinol], which “Anti-veratridine effect (inhibiting rate %)” value [1] is on record?
**A.** 19.8%

**Q.** What about the “Antiseizure effect (suppression rate %)” value [2] of the same compound?
**A.** 82%

**Q.** How did the “Anti-veratridine effect (inhibiting rate %)” value [1] turn out when `OC1(c2ccc(Oc3ccccc3)cc2)CCN(CC2(c3ccccc3)CC2)CC1` [Compound 49, 4-(4-phenoxy)phenyl-1-(1-phenyl-1-cyclopropane)methyl-4-piperidinol] was run?
**A.** 18.9%

**Q.** And the inhibition in vivo at 10 mg/kg [2]?
**A.** 50%

**Q.** How did the “Anti-veratridine effect (inhibiting rate %)” value [1] turn out when `OC1(c2ccc(-c3ccccc3)c(F)c2)CCN(CC2CC2c2ccccc2)CC1` (centres unmarked) [Compound 32] was run?
**A.** 27.3%

**Q.** With `OC1(c2ccc(Cc3ccc(F)cc3)cc2)CCN(C/C=C/c2ccccc2)CC1` [Compound 37, (E)-4-[4-(4-fluorophenyl)methylphenyl]-1-1-(3-phenyl-2-propenyl)-4-piperidinol] as the compound, how does the “Anti-veratridine effect (inhibiting rate %)” value [1] read?
**A.** 39.7%

**Q.** What about the inhibition in vivo at 10 mg/kg [2] of the same compound?
**A.** 88%

**Q.** With `O=C(CN1CCC(O)(c2ccc(Cc3ccc(F)cc3)cc2)CC1)NC1(c2ccccc2)CC1` [Compound 58, N-(1-phenyl)cyclopropyl-4-hydroxy-4-[4-(4-fluorophenyl)methylphenyl]-1-piperidinacetamide] as the compound, how does the “Anti-veratridine effect (inhibiting rate %)” value [1] read?
**A.** 11.3%

**Q.** And the inhibition in vivo at 10 mg/kg [2]?
**A.** 51.7%

**Q.** For `O=C(CN1CCC(O)(c2ccc(-c3ccccc3)cc2)CC1)c1ccccc1` [Compound 40, 1-(2-phenyl-2-oxoethyl)-4-(4-phenyl)phenyl-4-piperidinol], which “Anti-veratridine effect (inhibiting rate %)” value [1] is on record?
**A.** 23%

**Q.** And the inhibition in vivo at 10 mg/kg [2]?
**A.** 84%

**Q.** Which results are given for `O[C@@H](COc1ccccc1)CN1CCC(O)(c2ccc(Cc3ccc(F)cc3)cc2)CC1` [Compound 48, (R)-4-[4-(4-fluorophenyl)methylphenyl]-1-(2-hydroxy-3-phenoxy)propyl-4-piperidinol]?
**A.** Anti-veratridine effect (inhibiting rate %) [1]: 22.7%; inhibition in vivo at 10 mg/kg [2]: 82%

**Q.** `O=C(CN1CCC(O)(c2ccc(Cc3ccc(F)cc3)cc2)CC1)N[C@@H]1C[C@H]1c1ccccc1` (relative stereo) [Compound 54, N-(trans-2-phenyl-1-cyclopropyl)-4-[4-(4-fluorophenyl)methylphenyl]-4-hydroxy-1-piperidinacetamide] was tested. Which “Anti-veratridine effect (inhibiting rate %)” value [1] did it give?
**A.** 20.4%

**Q.** What about the inhibition in vivo at 10 mg/kg [2] of the same compound?
**A.** 58%

**Q.** For `OC1(c2ccc(-c3ccccc3)c(F)c2)CCN(CC2(c3ccccc3)CC2)CC1` [Compound 26, 4-(3-fluoro-4-phenyl)phenyl-1-(1-phenyl-1-cyclopropane)methyl-1-piperidinol], which “Anti-veratridine effect (inhibiting rate %)” value [1] is on record?
**A.** 30%

**Q.** With `OC(CN1CCC(O)(c2ccc(-c3ccccc3)cc2)CC1)c1ccccc1` (centres unmarked) [Compound 44, 1-(2-hydroxy-2-phenyl)ethyl-4-(4-phenyl)phenyl-4-piperidinol] as the compound, how does the inhibition in vivo at 10 mg/kg [2] read?
**A.** 68%

**Q.** With `OC(COc1ccccc1)CN1CCC(O)(c2ccc(-c3ccccc3)cc2)CC1` (centres unmarked) [Compound 41, 1-(2-hydroxy-3-phenoxy)propyl-4-(4-phenyl)phenyl-4-piperidinol] as the compound, how does the “Anti-veratridine effect (inhibiting rate %)” value [1] read?
**A.** 23.7%

**Q.** What about the inhibition in vivo at 10 mg/kg [2] of the same compound?
**A.** 92%

**Q.** Which “Anti-veratridine effect (inhibiting rate %)” value [1] does the source give for `O=C(CN1CCC(O)(c2ccc(Oc3ccccc3)cc2)CC1)NC1CC1c1ccccc1` (stereo not drawn) [Compound 53, N-(trans-2-phenyl-1-cyclopropyl)-4-hydroxy-4-(4-phenoxy)phenyl-1-piperidinacetamide] here?
**A.** 32.3%

**Q.** What about the inhibition in vivo at 10 mg/kg [2] of the same compound?
**A.** 74%

**Q.** For `O=C(CN1CCC(O)(c2ccc(Oc3ccccc3)cc2)CC1)c1ccccc1` [Compound 35, 4-(4-phenoxy)phenyl-1-(2-phenyl-2-oxoethyl)-4-piperidinol], which “Anti-veratridine effect (inhibiting rate %)” value [1] is on record?
**A.** 27.7%

**Q.** What about the inhibition in vivo at 10 mg/kg [2] of the same compound?
**A.** 98%

**Q.** For `O[C@H](COc1ccccc1)CN1CCC(O)(c2ccc(Cc3ccc(F)cc3)cc2)CC1` [Compound 47, (S)-4-[4-(4-fluorophenyl)methylphenyl]-1-(2-hydroxy-3-phenoxy)propyl-4-piperidinol], which “Anti-veratridine effect (inhibiting rate %)” value ([1]; 0.1 µM) is on record?
**A.** 39.5%

**Q.** And the “Antiseizure effect (suppression rate %)” value ([2]; 10 mg/kg)?
**A.** 78%

**Q.** Which results are given for `O=C(CN1CCC(O)(c2ccc(Oc3ccccc3)cc2)CC1)NC1(c2ccccc2)CC1` [Compound 57, N-(1-phenyl)cyclopropyl-4-hydroxy-4-(4-phenoxy)phenyl-1-piperidinacetamide]?
**A.** Anti-veratridine effect (inhibiting rate %) [1]: 40.1%; inhibition in vivo at 10 mg/kg [2]: 60%

**Q.** `Fc1cc(C2CCN(C/C=C/c3ccccc3)CC2)ccc1-c1ccccc1` [Compound 18, (E)-4-(3-fluoro-4-phenyl)phenyl-1-(3-phenyl-2-propenyl)piperidine] was tested. Which “Anti-veratridine effect (inhibiting rate %)” value [1] did it give?
**A.** 13.1%

**Q.** And the inhibition in vivo at 10 mg/kg [2]?
**A.** 62%

**Q.** How did the inhibition in vivo at 10 mg/kg [2] turn out when `C(=C\c1ccccc1)/CN1CCC(c2ccc(-c3ccccc3)cc2)CC1` [Compound 22, (E)-4-(4-phenyl)phenyl-1-(3-phenyl-2-propenyl)piperidine] was run?
**A.** 72%

**Q.** With `OC1(c2ccc(-c3ccccc3)cc2)CCN(C/C=C/c2ccccc2)CC1` [Compound 33, (E)-4-(4-phenyl)phenyl-1-(3-phenyl-2-propenyl)-4-piperidinol] as the compound, how does the “Anti-veratridine effect (inhibiting rate %)” value [1] read?
**A.** 12.8%

**Q.** Which “Anti-veratridine effect (inhibiting rate %)” value ([1]; 0.1 µM) does the source give for `OC(COc1ccccc1)CN1CCC(O)(c2ccc(Oc3ccccc3)cc2)CC1` (centres unmarked) [Compound 36, 4-(4-phenoxy)phenyl-1-(2-hydroxy-3-phenoxy)propyl-4-piperidinol] here?
**A.** 28.6%

**Q.** What about the inhibition in vivo at 10 mg/kg [2] of the same compound?
**A.** 68%

**Q.** `c1ccc(-c2ccc(C3CCN(CC4(c5ccccc5)CC4)CC3)cc2)cc1` [Compound 28, 4-(4-phenyl)phenyl-1-(1-phenyl-1-cyclopropane)methylpiperidine] was tested. Which “Anti-veratridine effect (inhibiting rate %)” value [1] did it give?
**A.** 24%

**Q.** And the inhibition in vivo at 10 mg/kg [2]?
**A.** 56%

**Q.** Which “Anti-veratridine effect (inhibiting rate %)” value [1] does the source give for `OC(COc1ccccc1)CN1CCC(c2ccc(-c3ccccc3)cc2)CC1` (centres unmarked) [Compound 29, 4-(4-phenyl)phenyl-1-(2-hydroxy-3-phenoxy)propylpiperidine] here?
**A.** 40%

**Q.** And the inhibition in vivo at 10 mg/kg [2]?
**A.** 68%

**Q.** What does the source list for `O=C(CN1CCC(c2ccc(-c3ccccc3)cc2)CC1)c1ccccc1` [Compound 23, 4-(4-phenyl)phenyl-1-(2-phenyl-2-oxoethyl)piperidine]?
**A.** Anti-veratridine effect (inhibiting rate %) [1]: 11.3%; inhibition in vivo at 10 mg/kg [2]: 84%

**Q.** How did the “Anti-veratridine effect (inhibiting rate %)” value [1] turn out when `COc1ccc(C(=O)CN2CCC(O)(c3ccc(-c4ccccc4)c(F)c3)CC2)cc1` [Compound 21, 4-(3-fluoro-4-phenyl)phenyl-1-[2-(4-methoxyphenyl)-2-oxoethyl]-4-piperidinol] was run?
**A.** 18.6%

**Q.** What about the inhibition in vivo at 10 mg/kg [2] of the same compound?
**A.** 91.3%

**Q.** With `O=C(CN1CCC(c2ccc(-c3ccccc3)c(F)c2)CC1)NC1CC1c1ccccc1` (stereo not drawn) [Compound 31, N-(trans-2-phenyl-1-cyclopropyl)-4-(3-fluoro-4-phenyl)phenyl-1-piperidinacetamide] as the compound, how does the “Anti-veratridine effect (inhibiting rate %)” value [1] read?
**A.** 14%

**Q.** How did the “Anti-veratridine effect (inhibiting rate %)” value [1] turn out when `c1ccc(-c2ccc(C3CCN(CC4CC4c4ccccc4)CC3)cc2)cc1` (stereo not drawn) [Compound 27, 4-(4-phenyl)phenyl-1-(trans-2-phenyl-1-cyclopropylmethyl)piperidine] was run?
**A.** 41%

**Q.** What about the inhibition in vivo at 10 mg/kg [2] of the same compound?
**A.** 52%

**Q.** How did the “Anti-veratridine effect (inhibiting rate %)” value [1] turn out when `Fc1cc(C2CCN(CC3CC3c3ccccc3)CC2)ccc1-c1ccccc1` (stereo not drawn) [Compound 25, 4-(3-fluoro-4-phenyl)phenyl-1-(trans-2-phenyl-1-cyclopropylmethyl)piperidine] was run?
**A.** 57%

**Q.** And the inhibition in vivo at 10 mg/kg [2]?
**A.** 54%

**Q.** How did the “Anti-veratridine effect (inhibiting rate %)” value [1] turn out when `O=C(CN1CCC(c2ccc(-c3ccccc3)c(F)c2)CC1)c1ccccc1` [Compound 19, 4-(3-fluoro-4-phenyl)phenyl-1-(2-phenyl-2-oxoethyl)piperidine] was run?
**A.** 12.9%

**Q.** What about the inhibition in vivo at 10 mg/kg [2] of the same compound?
**A.** 52%

**Q.** How did the “Anti-veratridine effect (inhibiting rate %)” value [1] turn out when `O=C(CN1CCC(O)(c2ccc(Cc3ccc(F)cc3)cc2)CC1)c1ccccc1` [Compound 38, 4-[4-(4-fluorophenyl)methylphenyl]-1-(2-phenyl-2-oxoethyl)-4-piperidinol] was run?
**A.** 18%

**Q.** And the inhibition in vivo at 10 mg/kg [2]?
**A.** 82%
